Data set [1] is described as follows: Molar enthalpy of transition or fusion. The note with it: Crystal; DSC.
For data set [2] the following is noted: Crystal; DTA.

Where “and” joins values, the source holds several entries; their conditions need not be identical. Identical values can stand only once. Numbers after ± are expanded uncertainties.

Results on 2 compounds are retold here after the NIST ThermoML archive (doi:10.1016/j.tca.2017.02.014).

On to `NC(=O)c1cccnc1` [3-pyridinecarboxamide], for which the “Molar enthalpy of transition or fusion” value in data set [1] worked out at 24.6 ± 1.1 kJ/mol. Moreover, the Normal melting temperature in data set [2] was 128.00 ± 0.5 °C and 127.50 ± 0.5 °C.

For `CC(C(=O)O)c1cccc(C(=O)c2ccccc2)c1` (centres undefined) [ketoprofen], the “Molar enthalpy of transition or fusion” value in data set [1] was 30.5 ± 1.2 kJ/mol. Further, in data set [2], the Normal melting temperature was 94.20 ± 0.5 °C and 93.50 ± 0.5 °C.
